Several values for one entry are separate records, joined by “and”; a condition that tells them apart may be missing. Identical values can stand only once. Inconclusive results are not listed.

For the experiment, the system named is CD8F1 mice, subcutaneous mammary adenocarcinoma, T/C%. Description: NCI In Vivo Anticancer Drug Screen. Data for tumor model Mammary Adenocarcinoma CD8F1 (subcutaneous) in CD8F1. To be noted: higher = larger tumour. A digest of the protocol: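 Ratio of treated to vehicle-control outcome, based on either survival or tumor size, in mice bearing transplantable tumors given the test compound.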

[1] abbreviates: endpoint: median tumor weight (est.), dose: 50.0 mg/kg/injection, schedule: Q07DX005 (ip), vehicle: Klucel (hydroxypropylcellulose) (HPC).
Setting [2] is: endpoint: median tumor weight (est.), dose: 100.0 mg/kg/injection, schedule: Q07DX005 (ip), vehicle: Klucel (hydroxypropylcellulose) (HPC).
Setting [3] is: endpoint: median tumor weight (est.), dose: 200.0 mg/kg/injection, schedule: Q07DX005 (ip), vehicle: Klucel (hydroxypropylcellulose) (HPC).

In the case of `CC12CCC3C(CCC4CC(OC(=O)Cc5ccc(N(CCCl)CCCl)cc5)CCC43C)C1CCC(=O)N2` (configuration not stated), the T/C is, setting by setting: (endpoint: median tumor weight (est.), dose: 0.75 mg/kg/injection, schedule: Q07DX005 (ip), vehicle: saline with Tween-80) 63 % of control; (endpoint: median tumor weight (est.), dose: 1.5 mg/kg/injection, schedule: Q07DX005 (ip), vehicle: saline with Tween-80) 109 % of control; (endpoint: median tumor weight (est.), dose: 3.0 mg/kg/injection, schedule: Q07DX005 (ip), vehicle: Klucel (hydroxypropylcellulose) (HPC)) 91 % of control; (endpoint: median tumor weight (est.), dose: 3.0 mg/kg/injection, schedule: Q07DX005 (ip), vehicle: saline with Tween-80) 99 % of control; (endpoint: median tumor weight (est.), dose: 6.0 mg/kg/injection, schedule: Q07DX005 (ip), vehicle: Klucel (hydroxypropylcellulose) (HPC)) 41 % of control; (endpoint: median tumor weight (est.), dose: 6.0 mg/kg/injection, schedule: Q07DX005 (ip), vehicle: saline with Tween-80) 55 % of control. In addition, the T/C by setting is: (endpoint: median tumor weight (est.), dose: 12.0 mg/kg/injection, schedule: Q07DX005 (ip), vehicle: Klucel (hydroxypropylcellulose) (HPC)) 30 % of control; (endpoint: median tumor weight (est.), dose: 12.0 mg/kg/injection, schedule: Q07DX005 (ip), vehicle: saline with Tween-80) 12 % of control; (endpoint: median tumor weight (est.), dose: 24.0 mg/kg/injection, schedule: Q07DX005 (ip), vehicle: Klucel (hydroxypropylcellulose) (HPC)) 8 % of control; (endpoint: median tumor weight (est.), dose: 24.0 mg/kg/injection, schedule: Q07DX005 (ip), vehicle: saline with Tween-80) 1 % of control.

For the compound `CC1=CC(=Nc2ccc(N(CCCl)CCCl)cc2)C=C(C)C1=O`, the T/C (endpoint: median tumor weight (est.), dose: 6.25 mg/kg/injection, schedule: Q07DX005 (ip), vehicle: Klucel (hydroxypropylcellulose) (HPC)) is 61 % of control and 69 % of control; the T/C under setting [1] is 32 % of control and 44 % of control; the T/C under setting [2] was 45 % of control.

In the case of `Cc1cc(N(CCOS(C)(=O)=O)CCOS(C)(=O)=O)ccc1C=Nc1ccc(-c2nc(Cc3ccccc3)sc2C)cc1`, the T/C is, setting by setting: (endpoint: median tumor weight (est.), dose: 12.5 mg/kg/injection, schedule: Q07DX005 (ip), vehicle: Klucel (hydroxypropylcellulose) (HPC)) 18 % of control; under setting [2], 4 % of control and 9 % of control; under setting [3], 10 % of control.

With `CCCCNC(C)C1(O)Cc2c(O)c3c(c(O)c2C(OC2CC(N)C(O)C(C)O2)C1)C(=O)c1c(OC)cccc1C3=O` (configuration not stated), the T/C reads like this: (endpoint: median tumor weight (est.), dose: 28.5 mg/kg/injection, schedule: Q07DX005 (ip), vehicle: water) 100 % of control; (endpoint: median tumor weight (est.), dose: 42.7 mg/kg/injection, schedule: Q07DX005 (ip), vehicle: water) 154 % of control; (endpoint: median tumor weight (est.), dose: 64.0 mg/kg/injection, schedule: Q07DX005 (ip), vehicle: water) 66 % of control; (endpoint: median tumor weight (est.), dose: 96.0 mg/kg/injection, schedule: Q07DX005 (ip), vehicle: water) 20 % of control; (endpoint: median tumor weight change, dose: 62.5 mg/kg/injection, schedule: Q01DX001 (ip), vehicle: suspension in saline) 98 % of control; (endpoint: median tumor weight change, dose: 125.0 mg/kg/injection, schedule: Q01DX001 (ip), vehicle: suspension in saline) 65 % of control. Also, the T/C is 74 % of control (endpoint: median tumor weight change, dose: 250.0 mg/kg/injection, schedule: Q01DX001 (ip), vehicle: suspension in saline); 15 % of control (endpoint: median tumor weight change, dose: 500.0 mg/kg/injection, schedule: Q01DX001 (ip), vehicle: suspension in saline); 3 % of control (endpoint: median tumor weight change, dose: 1000.0 mg/kg/injection, schedule: Q01DX001 (ip), vehicle: suspension in saline).

`O=CC(=O)c1ccc(O)cc1`: the T/C by setting is: (endpoint: median tumor weight (est.), dose: 12.5 mg/kg/injection, schedule: Q07DX005 (ip), vehicle: suspension in saline) 102 % of control; (endpoint: median tumor weight (est.), dose: 25.0 mg/kg/injection, schedule: Q07DX005 (ip), vehicle: suspension in saline) 111 % of control; (endpoint: median tumor weight (est.), dose: 50.0 mg/kg/injection, schedule: Q07DX005 (ip), vehicle: suspension in saline) 123 % of control; (endpoint: median tumor weight (est.), dose: 100.0 mg/kg/injection, schedule: Q07DX005 (ip), vehicle: suspension in saline) 114 % of control.

Turning to `O=C(CCl)NC(Cc1ccc(N(CCCl)CCCl)cc1)C(=O)O` (configuration not stated), the T/C reads like this: (endpoint: median tumor weight (est.), dose: 2.0 mg/kg/injection, schedule: Q01DX001 (ip), vehicle: Klucel (hydroxypropylcellulose) (HPC)) 93 % of control; (endpoint: median tumor weight (est.), dose: 4.0 mg/kg/injection, schedule: Q01DX001 (ip), vehicle: Klucel (hydroxypropylcellulose) (HPC)) 54 % of control; (endpoint: median tumor weight (est.), dose: 8.0 mg/kg/injection, schedule: Q01DX001 (ip), vehicle: Klucel (hydroxypropylcellulose) (HPC)) 75 % of control and 82 % of control; (endpoint: median tumor weight (est.), dose: 16.0 mg/kg/injection, schedule: Q01DX001 (ip), vehicle: Klucel (hydroxypropylcellulose) (HPC)) 48 % of control and 60 % of control; (endpoint: median tumor weight (est.), dose: 32.0 mg/kg/injection, schedule: Q01DX001 (ip), vehicle: Klucel (hydroxypropylcellulose) (HPC)) 60 % of control and 62 % of control; (endpoint: median tumor weight (est.), dose: 64.0 mg/kg/injection, schedule: Q01DX001 (ip), vehicle: Klucel (hydroxypropylcellulose) (HPC)) 19 % of control and 43 % of control.

On to `N=c1c(C(=O)OCc2ccccc2)ncc(CCl)n1O`, for which the T/C reads like this: (endpoint: median tumor weight change, dose: 250.0 mg/kg/injection, schedule: Q01DX001 (ip), vehicle: saline with Tween-80) 78 % of control and 94 % of control; (endpoint: median tumor weight change, dose: 500.0 mg/kg/injection, schedule: Q01DX001 (ip), vehicle: saline with Tween-80) 80 % of control and 82 % of control; (endpoint: median tumor weight change, dose: 1000.0 mg/kg/injection, schedule: Q01DX001 (ip), vehicle: saline with Tween-80) 65 % of control and 81 % of control.

Consider `COC1CC(C)C(OC)C2=CC(=O)C=C(NC(=O)/C(C)=C/C=C\C(C)C(OC(N)=O)/C(C)=C\C(C)C1OC)C2=O` (configuration not stated), for which the T/C runs as follows: (endpoint: median tumor weight change, dose: 6.25 mg/kg/injection, schedule: Q01DX001 (ip), vehicle: saline + alcohol) 152 % of control; (endpoint: median tumor weight change, dose: 12.5 mg/kg/injection, schedule: Q01DX001 (ip), vehicle: saline + alcohol) 91 % of control; (endpoint: median tumor weight change, dose: 25.0 mg/kg/injection, schedule: Q01DX001 (ip), vehicle: saline + alcohol) 72 % of control.

`O=C(NC1CCCCC1)OCc1c(COC(=O)NC2CCCCC2)c(-c2ccc(Cl)c(Cl)c2)n2c1CCC2`: the T/C is 94 % of control (endpoint: median tumor weight (est.), dose: 25.0 mg/kg/injection, schedule: Q07DX005 (ip), vehicle: saline with Tween-80); 72 % of control (endpoint: median tumor weight (est.), dose: 50.0 mg/kg/injection, schedule: Q07DX005 (ip), vehicle: saline with Tween-80); 20 % of control (endpoint: median tumor weight (est.), dose: 100.0 mg/kg/injection, schedule: Q07DX005 (ip), vehicle: saline with Tween-80); 28 % of control (endpoint: median tumor weight (est.), dose: 200.0 mg/kg/injection, schedule: Q07DX005 (ip), vehicle: saline with Tween-80).

Turning to `O=C1N=C(Oc2ccccc2)SC1=O`, the T/C was 43 % of control (endpoint: median tumor weight change, dose: 62.5 mg/kg/injection, schedule: Q01DX001 (ip), vehicle: saline with Tween-80) and 66 % of control (endpoint: median tumor weight change, dose: 125.0 mg/kg/injection, schedule: Q01DX001 (ip), vehicle: DMSO).

As to `O=c1ssc(=Nc2ccccc2)n1-c1ccccc1`, the T/C (endpoint: median tumor weight (est.), dose: 25.0 mg/kg/injection, schedule: Q07DX005 (ip), vehicle: Klucel (hydroxypropylcellulose) (HPC)) is 119 % of control; the T/C under setting [1] was 90 % of control; the T/C under setting [2] is 70 % of control; the T/C under setting [3] was 65 % of control; the T/C (endpoint: median tumor weight (est.), dose: 400.0 mg/kg/injection, schedule: Q07DX005 (ip), vehicle: Klucel (hydroxypropylcellulose) (HPC)) was 69 % of control.

For the origin of these results see PubChem BioAssay AID220 (DTP/NCI, 2004).
